Assay: Conversion in NO-assay buffer followed by UPLC
Type: physicochemical
Settings: 37 °C
Experimental: The time-dependent degradation behavior of compounds 4f, 5a–f, and 6a–d as well as celecoxib was followed by UPLC analysis over a time course of 8 days (Figure 4). For that, compounds were incubated at 37 °C in the presence or absence of cysteine in the assay buffer used for the Griess assay. Samples were withdrawn at distinct time points (1, 5, 23, 47, 70, and 191 h), diluted into a mixture of acetonitrile/water, and analyzed.
The time-dependent conversion of NO-COXIBs 5a–f and 6a–d as well as reference compounds 4f and celecoxib in the presence or absence of cysteine in assay buffer was investigated by following the degradation of intact compound and identification of selected degradation products by UPLC. For that, samples were incubated at 37 °C in the assay buffer in the presence or absence of cysteine and at the indicated time point; 5 µL assay buffer of each sample was withdrawn and diluted with 45 µL MeCN/water (50/50 v/v). The samples were thoroughly vortexed and then subjected to UPLC analysis. All samples of one time point were analyzed within a total analysis time of approximately 2.5 h. Conversion was monitored at 254 nm using the following UPLC system: column Aquity UPLC® HSS C18 column (Waters Corporation, Milford, MA, USA; 100 × 2.1 mm, 1.8 µm, 130 Å), UPLC H-Class (Waters Corporation, Milford, MA, USA): quaternary gradient pump QSM, autosampler FTN, column heater CHA, and diode array detector PDAeλ, γ detector Gabi Star (Raytest Isotopenmeßgeräte GmbH, Straubenhardt, Germany), flow rate 0.4 mL/min, eluent: (A): 0.1% acetic acid in MeCN/MeOH 1/1/(B): 0.1% acetic acid in H2O; gradient: t0min 45/55–t0.5min 45/55–t5.5min 95/5–t7.0min 95/5–t7.2min 45/55–t8.5min 45/55). For the identification of degradation products, samples taken after 24 h were additionally subjected to HPLC-HRMS analysis using HPLC system 6. In brief, the NO-COXIBs were converted to the respective hydroxymethyl-substituted compounds and in the presence of cysteine additionally to the cysteine adduct, which could be identified by the respective Δm/z shifts. A detailed comparison of calculated and found m/z-signals is given in Supplementary Material Table S1, and copies of HPLC-HRMS chromatograms and selected spectra are given in Supplementary Material Figures S56–S66.

Row | intact compound (after 8 days (192 h)) [%] | intact compound (after 70 h, absence of cysteine) | intact compound (after 70 h, presence of cysteine) | SMILES
1 | 57 | – | – | Cc1ccc(-c2c(Cl)c(CO[N+](=O)[O-])nn2-c2ccc(S(C)(=O)=O)cc2)cc1 [5c, {4-Chloro-1-[4-(methylsulfonyl)phenyl]-5-(p-tolyl)-1H-pyrazol-3-yl}methyl nitrate]
2 | – | consumed | quantitatively consumed | CCC(=O)NS(=O)(=O)c1ccc(-n2nc(CO[N+](=O)[O-])cc2-c2ccc(OC)cc2)cc1 [6d, {5-(4-Methoxyphenyl)-1-[4-(N-propionylsulfamoyl)phenyl]-1H-pyrazol-3-yl}methyl nitrate]

From publication PMC9573605, “Exploring Nitric Oxide (NO)-Releasing Celecoxib Derivatives as Modulators of Radioresponse in Pheochromocytoma Cells” (Molecules, 2022)
